Laboratory results taken from PubChem BioAssay AID256 (DTP/NCI, 2004).
Several values for one entry are separate records, joined by “and”; a condition that tells them apart may be missing. Equal values may be shown once. Toxic doses and inconclusive results are not listed. Rule for the calls: active = survival T/C of 150% or more; inactive = T/C below 125% in these data.

Test system: CD2F1 mice, L1210 leukemia ip, survival T/C
Test: NCI In Vivo Anticancer Drug Screen. Data for tumor model L1210 Leukemia (intraperitoneal) in CD2F1 (CDF1) mice
Details: higher = longer survival
How it was run: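 Activity against a transplanted murine tumor was judged by comparing the compound group with a vehicle group. The outcome in the treated animals was divided by that in the controls.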

[1] = endpoint: mean survival time, dose: 50.0 mg/kg/injection, schedule: Q01DX009 (ip), vehicle: Klucel (hydroxypropylcellulose) (HPC)
[2] = endpoint: mean survival time, dose: 100.0 mg/kg/injection, schedule: Q01DX009 (ip), vehicle: Klucel (hydroxypropylcellulose) (HPC)
[3] = endpoint: mean survival time, dose: 200.0 mg/kg/injection, schedule: Q01DX009 (ip), vehicle: Klucel (hydroxypropylcellulose) (HPC)
[4] = endpoint: mean survival time, dose: 100.0 mg/kg/injection, schedule: Q04DX002 (ip), vehicle: saline with Tween-80
[5] = endpoint: mean survival time, dose: 200.0 mg/kg/injection, schedule: Q04DX002 (ip), vehicle: saline with Tween-80
[6] = endpoint: mean survival time, dose: 100.0 mg/kg/injection, schedule: Q01DX001 (ip), vehicle: saline
[7] = endpoint: mean survival time, dose: 200.0 mg/kg/injection, schedule: Q01DX001 (ip), vehicle: saline
[8] = endpoint: mean survival time, dose: 400.0 mg/kg/injection, schedule: Q01DX001 (ip), vehicle: saline
[9] = endpoint: mean survival time, dose: 100.0 mg/kg/injection, schedule: Q01DX009 (ip), vehicle: saline with Tween-80
[10] = endpoint: mean survival time, dose: 200.0 mg/kg/injection, schedule: Q01DX009 (ip), vehicle: saline with Tween-80
[11] = endpoint: mean survival time, dose: 400.0 mg/kg/injection, schedule: Q01DX009 (ip), vehicle: saline with Tween-80
[12] = endpoint: mean survival time, dose: 100.0 mg/kg/injection, schedule: Q01DX001 (ip), vehicle: Klucel (hydroxypropylcellulose) (HPC)
[13] = endpoint: mean survival time, dose: 200.0 mg/kg/injection, schedule: Q01DX001 (ip), vehicle: Klucel (hydroxypropylcellulose) (HPC)
[14] = endpoint: mean survival time, dose: 100.0 mg/kg/injection, schedule: Q04DX003 (ip), vehicle: saline with Tween-80
[15] = endpoint: mean survival time, dose: 200.0 mg/kg/injection, schedule: Q04DX003 (ip), vehicle: saline with Tween-80
[16] = endpoint: mean survival time, dose: 400.0 mg/kg/injection, schedule: Q04DX003 (ip), vehicle: saline with Tween-80

Measured: T/C

O=S(=O)(O)O.[Pt].c1ccc([PH+](c2ccccc2)c2ccccc2)cc1.c1ccc([PH+](c2ccccc2)c2ccccc2)cc1.c1ccc([PH+](c2ccccc2)c2ccccc2)cc1
inactive: endpoint: mean survival time, dose: 3.12 mg/kg/injection, schedule: Q04DX003 (ip), vehicle: distilled water + Tween-80 102 % of control | endpoint: mean survival time, dose: 6.25 mg/kg/injection, schedule: Q04DX003 (ip), vehicle: distilled water + Tween-80 102 % of control | endpoint: mean survival time, dose: 12.5 mg/kg/injection, schedule: Q04DX003 (ip), vehicle: distilled water + Tween-80 105 % of control | endpoint: mean survival time, dose: 25.0 mg/kg/injection, schedule: Q04DX003 (ip), vehicle: distilled water + Tween-80 102 % of control

COc1cccc2c1C(=N)c1c(O)c3c(c(O)c1C2=O)C[C@@](O)(C(C)=O)C[C@@H]3OC1CC(N)C(O)C(C)O1 (some centres not stated)
inactive: endpoint: mean survival time, dose: 0.5 mg/kg/injection, schedule: Q01DX009 (ip), vehicle: saline 121 % of control and 108 % of control | endpoint: mean survival time, dose: 1.0 mg/kg/injection, schedule: Q01DX009 (ip), vehicle: saline 124 % of control | endpoint: mean survival time, dose: 2.0 mg/kg/injection, schedule: Q01DX009 (ip), vehicle: saline 113 % of control and 122 % of control | endpoint: mean survival time, dose: 4.0 mg/kg/injection, schedule: Q01DX009 (ip), vehicle: saline 114 % of control and 119 % of control | endpoint: mean survival time, dose: 8.0 mg/kg/injection, schedule: Q01DX009 (ip), vehicle: saline 101 % of control

C/C(=N\O)c1ccccn1
inactive: endpoint: mean survival time, dose: 25.0 mg/kg/injection, schedule: Q01DX009 (ip), vehicle: Klucel (hydroxypropylcellulose) (HPC) 95 % of control | [1] 100 % of control | [2] 90 % of control | [3] 95 % of control | endpoint: mean survival time, dose: 400.0 mg/kg/injection, schedule: Q01DX009 (ip), vehicle: Klucel (hydroxypropylcellulose) (HPC) 105 % of control

O=C(Nc1ccc(F)cc1)Nc1ccc(F)cc1
inactive: [4] 94 % of control | [5] 87 % of control

C(=C\c1nnnn1C12CC3CC(CC(C3)C1)C2)/c1ccccc1
inactive: [6] 104 % of control | [7] 104 % of control | [8] 96 % of control

CCOC(=O)CCc1ccc2c(c1)OCO2
inactive: [9] 103 % of control | [10] 103 % of control | [11] 113 % of control

O=S(=O)(c1ccccc1)c1cccs1
inactive: endpoint: mean survival time, dose: 50.0 mg/kg/injection, schedule: Q04DX003 (ip), vehicle: saline 93 % of control | [6] 110 % of control | endpoint: mean survival time, dose: 100.0 mg/kg/injection, schedule: Q04DX003 (ip), vehicle: saline 98 % of control | [7] 112 % of control | endpoint: mean survival time, dose: 200.0 mg/kg/injection, schedule: Q04DX003 (ip), vehicle: saline 95 % of control | [8] 112 % of control

NCCCC(NN)C(=O)O (configuration not stated)
inactive: endpoint: mean survival time, dose: 7.5 mg/kg/injection, schedule: Q01DX009 (ip), vehicle: saline 100 % of control | endpoint: mean survival time, dose: 15.0 mg/kg/injection, schedule: Q01DX009 (ip), vehicle: saline 97 % of control | endpoint: mean survival time, dose: 30.0 mg/kg/injection, schedule: Q01DX009 (ip), vehicle: saline 94 % of control

N=Cc1ccccc1
inactive: [12] 99 % of control | [13] 96 % of control | endpoint: mean survival time, dose: 400.0 mg/kg/injection, schedule: Q01DX001 (ip), vehicle: Klucel (hydroxypropylcellulose) (HPC) 105 % of control

O/N=C1\CCCCC\C1=N/O.O/N=C1\CCCCC\C1=N/O.[Pt]
inactive: endpoint: mean survival time, dose: 3.13 mg/kg/injection, schedule: Q04DX003 (ip), vehicle: dextrose 104 % of control | endpoint: mean survival time, dose: 6.25 mg/kg/injection, schedule: Q04DX003 (ip), vehicle: dextrose 108 % of control | endpoint: mean survival time, dose: 12.5 mg/kg/injection, schedule: Q04DX003 (ip), vehicle: dextrose 98 % of control | endpoint: mean survival time, dose: 25.0 mg/kg/injection, schedule: Q04DX003 (ip), vehicle: dextrose 98 % of control and 101 % of control | endpoint: mean survival time, dose: 50.0 mg/kg/injection, schedule: Q04DX003 (ip), vehicle: dextrose 95 % of control and 106 % of control | endpoint: mean survival time, dose: 100.0 mg/kg/injection, schedule: Q04DX003 (ip), vehicle: dextrose 103 % of control | endpoint: mean survival time, dose: 200.0 mg/kg/injection, schedule: Q04DX003 (ip), vehicle: dextrose 96 % of control and 98 % of control

CC(=O)NC(CCC(=O)O)C(=O)O.[NH-]C1CCCCC1[NH-].[Pt+2] (configuration not stated)
inactive: endpoint: median survival time, dose: 6.25 mg/kg/injection, schedule: Q04DX003 (ip), vehicle: saline 97 % of control | endpoint: median survival time, dose: 12.5 mg/kg/injection, schedule: Q04DX003 (ip), vehicle: saline 110 % of control | endpoint: median survival time, dose: 25.0 mg/kg/injection, schedule: Q04DX003 (ip), vehicle: saline 102 % of control | endpoint: median survival time, dose: 50.0 mg/kg/injection, schedule: Q04DX003 (ip), vehicle: saline 97 % of control | endpoint: median survival time, dose: 100.0 mg/kg/injection, schedule: Q04DX003 (ip), vehicle: saline 112 % of control

CN(CCS(=O)(=O)O)/N=C/c1ccc2c(c1)OCO2
inactive: endpoint: mean survival time, dose: 25.0 mg/kg/injection, schedule: Q04DX003 (ip), vehicle: acetone 97 % of control | endpoint: mean survival time, dose: 50.0 mg/kg/injection, schedule: Q04DX003 (ip), vehicle: acetone 103 % of control | endpoint: mean survival time, dose: 100.0 mg/kg/injection, schedule: Q04DX003 (ip), vehicle: acetone 98 % of control

Cc1cc(CC(O)(C(F)(F)Cl)C(F)(F)Cl)cc(C)n1
inactive: [14] 95 % of control | [15] 92 % of control | [16] 90 % of control

CCCCCCCCCCCCCCCCCCOCCCCCCCCCCCCCCCCCC
inactive: [9] 102 % of control | [14] 95 % of control | [10] 98 % of control | [15] 88 % of control | [11] 93 % of control | [16] 92 % of control

CC(CC=O)CCCC(C)(C)O (configuration not stated)
inactive: [14] 103 % of control | [15] 95 % of control | [16] 98 % of control

COC1OCC(O)C(O)C1O (configuration not stated)
inactive: endpoint: mean survival time, dose: 100.0 mg/kg/injection, schedule: Q01DX009 (ip), vehicle: saline 101 % of control | endpoint: mean survival time, dose: 200.0 mg/kg/injection, schedule: Q01DX009 (ip), vehicle: saline 98 % of control | endpoint: mean survival time, dose: 400.0 mg/kg/injection, schedule: Q01DX009 (ip), vehicle: saline 98 % of control

CCN(CC)C(=O)c1cc[n+](Cc2ccc(Cl)c(Cl)c2)cc1
inactive: endpoint: mean survival time, dose: 50.0 mg/kg/injection, schedule: Q01DX009 (ip), vehicle: saline with Tween-80 102 % of control | [9] 105 % of control | [14] 100 % of control | [15] 102 % of control

CC(=O)OC(Cc1ccc(Cl)cc1)c1ccc(Cl)cc1 (configuration not stated)
inactive: endpoint: mean survival time, dose: 50.0 mg/kg/injection, schedule: Q04DX002 (ip), vehicle: saline with Tween-80 96 % of control | [4] 96 % of control | [5] 90 % of control | endpoint: mean survival time, dose: 400.0 mg/kg/injection, schedule: Q04DX002 (ip), vehicle: saline with Tween-80 90 % of control

CS(=O)(=O)C([N+](=O)[O-])S(C)(=O)=O
inactive: [6] 101 % of control | [7] 101 % of control | [8] 97 % of control

CCCCCCCCCCCCNC(=O)C[n+]1cccc(C(=O)N(C)C)c1
inactive: endpoint: mean survival time, dose: 5.0 mg/kg/injection, schedule: Q01DX009 (ip), vehicle: saline with Tween-80 114 % of control | endpoint: mean survival time, dose: 10.0 mg/kg/injection, schedule: Q01DX009 (ip), vehicle: saline with Tween-80 97 % of control | endpoint: mean survival time, dose: 20.0 mg/kg/injection, schedule: Q01DX009 (ip), vehicle: saline with Tween-80 98 % of control

Cc1cc(=O)[nH]c(=O)[nH]1
inactive: endpoint: mean survival time, dose: 50.0 mg/kg/injection, schedule: Q01DX001 (ip), vehicle: Klucel (hydroxypropylcellulose) (HPC) 95 % of control | [1] 98 % of control | [12] 104 % of control | [2] 98 % of control | [13] 98 % of control | [3] 102 % of control

CC1(C)C(=O)C(Br)=Cc2ccccc21
inactive: endpoint: mean survival time, dose: 12.5 mg/kg/injection, schedule: Q01DX009 (ip), vehicle: other 105 % of control | endpoint: mean survival time, dose: 25.0 mg/kg/injection, schedule: Q01DX009 (ip), vehicle: other 100 % of control | endpoint: mean survival time, dose: 50.0 mg/kg/injection, schedule: Q01DX009 (ip), vehicle: other 111 % of control | endpoint: mean survival time, dose: 100.0 mg/kg/injection, schedule: Q01DX009 (ip), vehicle: other 108 % of control | endpoint: mean survival time, dose: 200.0 mg/kg/injection, schedule: Q01DX009 (ip), vehicle: other 105 % of control

CCOC(=O)CCC(NC(=O)c1ccc(N(CC)Cc2cnc3nc(N)nc(N)c3n2)cc1)C(=O)OCC (configuration not stated)
active: endpoint: mean survival time, dose: 1.56 mg/kg/injection, schedule: Q01DX009 (ip), vehicle: Klucel (hydroxypropylcellulose) (HPC) 152 % of control

COC(=O)Nc1ccc(NC(=O)c2cscn2)c(NC(=O)OC)n1
inactive: [14] 98 % of control | [15] 91 % of control
